Source: patent US10954219B2, “1,3-benzodioxole derivative” (DAIICHI SANKYO COMPANY, LIMITED, priority 2014, dated 2021)

Key:
[1] = tested on: KARPAS-422 (EZH2 Y641N mutant human diffuse large B-cell lymphoma); assay: Cell growth inhibitory activity evaluation, KARPAS-422; format: cell-based; details: KARPAS-422 (Lymphoma)
Description: (§1) Cell Growth Inhibitory Activity Evaluation
(§2) Cells were purchased from ATCC (G401 (human kidney-derived rhabdoid tumor), HepG2, LNCaP, LS180, MV4; 11, NCI-H1563, NCI-H1703, NCI-H520, NCI-H522, NCI-N87, RS4; 11, and THP-1), Deutsche Sammlung von Mikroorganismen und Zellkulturen GmbH (DSMZ) (KARPAS-422 (EZH2 Y641N mutant human diffuse large B-cell lymphoma) and KOPN8), and Health Science Research Resource Bank (OVMANA). […] Then, the luminescence intensity of each well was measured using a plate reader (EnVision, PerkinElmer, Inc.). The extent of cell growth inhibition was calculated from the luminescence intensity of a sample-supplemented group (Ts) and a DMSO-supplemented group (Cs) measured on the inoculation date and a sample-supplemented group (T) and a DMSO-supplemented group (C) measured on the effect determination date according to the following expression: Extent of cell growth inhibition (%)={1−(T−Ts)/(C−Cs)}×100
(§3) When the number of cells in the sample-supplemented group is decreased on the determination date compared with the inoculation date (T<Ts), a cytocidal effect was calculated according to the following expression: Cytocidal rate (%)=(T−Ts)/Ts×(−100)

[2] = tested on: G401 (human kidney-derived rhabdoid tumor); assay: Cell growth inhibitory activity evaluation, G401; format: cell-based
Description: as §1, §2, §3

KOPN8 = assay: Cell growth inhibitory activity evaluation, KOPN8; format: cell-based
Description: as §1, §2, §3

RS4;11 = assay: Cell growth inhibitory activity evaluation, RS4;11; format: cell-based; details: RS4;11 (Leukemia)
Description: as §1, §2, §3

MV4;11 = assay: Cell growth inhibitory activity evaluation, MV4;11; format: cell-based; details: MV4;11 (Leukemia)
Description: as §1, §2, §3

NCI-H1703 = assay: Cell growth inhibitory activity evaluation, NCI-H1703; format: cell-based; details: NCI-H1703 (Lung cancer)
Description: as §1, §2, §3

NCI-N87 = assay: Cell growth inhibitory activity evaluation, NCI-N87; format: cell-based, human; details: NCI-N87 (Stomach cancer)
Description: as §1, §2, §3

NCI-H522 = assay: Cell growth inhibitory activity evaluation, NCI-H522; format: cell-based; details: NCI-H522 (Lung cancer)
Description: as §1, §2, §3

THP-1 = assay: Cell growth inhibitory activity evaluation, THP-1; format: cell-based; details: THP-1 (Leukemia)
Description: as §1, §2, §3

LNCaP = assay: Cell growth inhibitory activity evaluation, LNCaP; format: cell-based; details: LNCaP (Prostate cancer)
Description: as §1, §2, §3

LS180 = assay: Cell growth inhibitory activity evaluation, LS180; format: cell-based, human; details: LS180 (Colorectal cancer)
Description: as §1, §2, §3

OVMANA = assay: Cell growth inhibitory activity evaluation, OVMANA; format: cell-based; details: OVMANA (Ovarian cancer), read-out: Extent of cell growth inhibition
Description: as §1, §2, §3

NCI-H520 = assay: Cell growth inhibitory activity evaluation, NCI-H520; format: cell-based; details: Homo sapiens, NCI-H520 (Lung cancer), read-out: Extent of cell growth inhibition
Description: as §1, §2, §3

HepG2 = assay: Cell growth inhibitory activity evaluation, HepG2; format: cell-based; details: Homo sapiens, HepG2 (Liver cancer), read-out: Extent of cell growth inhibition
Description: as §1, §2, §3

NCI-H1563 = assay: Cell growth inhibitory activity evaluation, NCI-H1563; format: cell-based; details: Homo sapiens, NCI-H1563 (Lung cancer), read-out: Extent of cell growth inhibition
Description: as §1, §2, §3

[3] = tested on: EZH2 Y641N mutant human diffuse large B-cell lymphoma KARPAS-422-subcutaneously transplanted model; assay: Antitumor activity, KARPAS-422-subcutaneously transplanted model; format: in vivo, female SCID mice; details: oral, QD × 14, 45 days after grouping
Excerpt: Evaluation of Antitumor Activity Against EZH2 Y641N Mutant Human Diffuse Large B-Cell Lymphoma KARPAS-422-Subcutaneously Transplanted Model
EZH2 Y641N mutant human diffuse large B-cell lymphoma KARPAS-422 cells were subcutaneously transplanted in an amount of 2×10^7 cells/head to the right abdomens of female SCID mice. After 30 days, the mice were grouped on the basis of their presumed tumor volumes (major axis×minor axis×minor axis/2) and body weights. The KARPAS-422 cells were purchased from DSMZ. […] The tumor volume of each individual was measured from the grouping date to 45 days thereafter (test completion date).

[4] = tested on: SNF5 deletion mutant human kidney-derived rhabdoid tumor G401-subcutaneously transplanted model; assay: Antitumor activity, G401-subcutaneously transplanted model; format: in vivo, female BALB/c-nu/nu mice; details: oral, QD × 12, 36 days after grouping
Excerpt: Evaluation of Antitumor Activity Against SNF5 Deletion Mutant Human Kidney-Derived Rhabdoid Tumor G401-Subcutaneously Transplanted Model
SNF5 deletion mutant human kidney-derived rhabdoid tumor G401 cells were subcutaneously transplanted in an amount of 1×10^7 cells/head to the right abdomens of female BALB/c-nu/nu mice. After 23 days, the mice were grouped on the basis of their presumed tumor volumes and body weights. The G401 cells were purchased from ATCC. […] The tumor volume of each individual was measured from the grouping date to 36 days thereafter (test completion date).

[5] = Homo sapiens, read-out: Extent of cell growth inhibition

## Cc1cc(C)c(CNC(=O)c2cc(Br)c3c(c2C)OC(C)([C@H]2CC[C@H](N(C)C)CC2)O3)c(=O)[nH]1 (relative stereo) [Example 14, 7-Bromo-2-[trans-4-(dimethylamino)cyclohexyl]-N-[(4,6-dimethyl-2-oxo-1,2-dihydropyridin-3-yl)methyl]-2,4-dimethyl-1,3-benzodioxole-5-carboxamide]
[1]; [5]
  inhibition at 1 µM: > 100%
[1]; 1 uM
  Cytocidal rate: 100%
[2]; 1 uM
  Cytocidal rate: 100%
[2]; Homo sapiens, G-401, read-out: Extent of cell growth inhibition
  inhibition at 1 µM: > 100%
KOPN8; Homo sapiens, KOPN-8, KOPN8 (Leukemia), read-out: Extent of cell growth inhibition
  inhibition at 1 µM: > 100%
KOPN8; KOPN8 (Leukemia), 1 uM
  Cytocidal rate: 99%
RS4;11; [5]
  inhibition at 1 µM: > 100%
RS4;11; 1 uM
  Cytocidal rate: 94%
MV4;11; [5]
  inhibition at 1 µM: > 100%
MV4;11; 1 uM
  Cytocidal rate: 88%
NCI-H1703; [5]
  inhibition at 1 µM: > 100%
NCI-H1703; 1 uM
  Cytocidal rate: 49%
NCI-N87; [5]
  inhibition at 1 µM: > 100%
NCI-N87; 1 uM
  Cytocidal rate: 15%
NCI-H522; [5]
  inhibition at 1 µM: > 100%
NCI-H522; 1 uM
  Cytocidal rate: 13%
THP-1; [5]
  inhibition at 1 µM: > 100%
THP-1; 1 uM
  Cytocidal rate: 7%
LNCaP; [5]
  inhibition at 1 µM: > 100%
LNCaP; 1 uM
  Cytocidal rate: 6%
LS180; [5]
  inhibition at 1 µM: > 100%
LS180; 1 uM
  Cytocidal rate: 6%
OVMANA
  inhibition at 1 µM: 95%
NCI-H520
  inhibition at 1 µM: 80%
HepG2
  inhibition at 1 µM: 78%
NCI-H1563
  inhibition at 1 µM: 56%
[3]; KARPAS-422, 5 mg/kg
  Extent of tumor growth inhibition: 26%
[3]; KARPAS-422, 25 mg/kg
  Extent of tumor growth inhibition: 80%
[3]; KARPAS-422, 200 mg/kg
  Extent of tumor growth inhibition: >100%
  Extent of tumor regression: 50%
[4]; G401, 50 mg/kg
  Extent of tumor growth inhibition: >100%
  Extent of tumor regression: 19%
[4]; G401, 200 mg/kg
  Extent of tumor growth inhibition: >100%
  Extent of tumor regression: 29%
